Data published in US20060282906A1, “Non-transgenic rodent model of Alzheimer's disease” (priority 2005, published 2006).
Marks after values point to notes of the source that are not given here. Where no end group is shown, it is not given here.

How the values were obtained:
Male Wistar rats [1] = experiment: Quantitative immunohistochemistry: relative optical density and numbers of stained cells or accumulations; assay type: in vivo, rat; details: for APP Accumulation / GFAP Intensity / OX6 Intensity: vehicle (not in brackets), mean ± SEM, n = 4
Method: All rats were anesthetized using 40 mg/kg of pentobarbital (Somnotol; MTC Pharmaceuticals, Cambridge, Ontario) intraperitoneally. Body temperature was maintained at 37° C. Aβ(25-35) (50 nmol in 10 μL of saline) was injected bilaterally into the lateral ventricles. Aβ(25-35) was prepared according to established methods (Sigurdsson, et al. (1997) supra). Aβ(25-35) (50 nmol in 10 μL of saline at a rate of 1 μL/minute) was injected bilaterally into the lateral ventricles via a stainless-steel cannula (23-gauge; anterior/posterior −0.8, medial/lateral ±1.4, and dorsal/ventral −4.0 below dura). Two endothelin injections (6 pmol in 3 μL of saline), 1 mm apart, were made into the right striatum (Sigurdsson, et al. (1997) supra). Sham procedures involved all the surgical steps without injections of Aβ(25-35) or endothelin. After wound suture, all rats received 40 mg/kg of buprenorphine intramuscularly and were allowed to recover from surgery for 7 days.
Twenty-one days after surgery, all animals were euthanized via pentobarbital overdose and perfused transaortically first with saline followed by 4% formaldehyde (pH 7.4). The brains were removed and cryoprotected in 30% sucrose for 36 hours at 4° C. Coronal sections (30 pm) were cut using a cryostat.
Free-floating sections from rat brains (n=5 for each group) were treated with 0.03% hydrogen peroxide and blocked with 3 mL of horse or rabbit serum (VECTASTAIN® Elite, Vector Laboratories, Burlingame, Calif.). The following primary antibodies were diluted in filtered phosphate-buffered saline: APPa4 mouse monoclonal (Chemicon International Inc, Temecula, Calif.; 1:1000), GFAP mouse monoclonal (Sigma-Aldrich, St Louis, Mo.; 1:1000), OX-6 mouse monoclonal (Serotec, Inc., Raleigh, N.C.; 1:1000), Tau-2 mouse monoclonal (Sigma-Aldrich, St Louis, Mo.; 1:10000), NFκB(p65) goat polyclonal (Santa Cruz Biotechnologies, Santa Cruz, Calif.; 1:1000), IL-1β goat polyclonal (Santa Cruz Biotechnologies, Santa Cruz, Calif.; 1:1000), and TNF-α-M18 goat polyclonal (Santa Cruz Biotechnologies, Santa Cruz, Calif.; 1:1000). APP-, Tau-2-, GFAP-, and OX-6-stained sections were incubated with 3 mL of horse biotinylated anti-mouse secondary antibody and horse serum. NFκB(p65), IL-1β, and TNF-α-stained sections were incubated with 3 mL of biotinylated rabbit anti-goat secondary antibody and rabbit serum. Sections were then incubated in 3 mL of avidin-biotin complex followed by 0.05% diaminobenzidine. Sections were washed, air-dried, cleared in xylene, and cover-slipped. Brains to be compared were processed at the same time using the same solutions to reduce variability in immunostaining caused by separate processing.
Digital photographs were taken using a light microscope (Leitz Diaplan). An investigator was blinded to the identification of the rat sections while analysis was being performed. All immunohistochemical data that were compared was processed at the same time to reduce any variation caused by differences of intensity. A grading scale was based on both observable size and intensity of staining (n=5 for each group). Also, relative optical density measurements and numbers of stained cells or accumulations were measured in entire brain areas for quantitative analysis and statistically analyzed with ANOVA and Tukey post hoc test with a significance level of P<0.05.

Male Wistar rats [2] = experiment: Montoya staircase test; assay type: in vivo, rat
Method: (§1) Male Wistar rats (250 to 300 grams; Charles River, Montreal, Quebec) were divided into 4 groups: intracerebroventricular injections of Aβ(25-35) (BACHEM, Torrance, Calif.); endothelin injections into the right striatum; both Aβ(25-35) and striatal endothelin injections; and sham procedures. The Aβ(25-35) fragment was used to reduce the possibility of rapid coagulation and to allow diffusion of the peptide into the brain.
(§2) All rats were anesthetized using 40 mg/kg of pentobarbital (Somnotol; MTC Pharmaceuticals, Cambridge, Ontario) intraperitoneally. Body temperature was maintained at 37° C. Aβ(25-35) (50 nmol in 10 μL of saline) was injected bilaterally into the lateral ventricles. Aβ(25-35) was prepared according to established methods (Sigurdsson, et al. (1997) supra). Aβ(25-35) (50 nmol in 10 μL of saline at a rate of 1 μL/minute) was injected bilaterally into the lateral ventricles via a stainless-steel cannula (23-gauge; anterior/posterior −0.8, medial/lateral ±1.4, and dorsal/ventral −4.0 below dura). Two endothelin injections (6 pmol in 3 μL of saline), 1 mm apart, were made into the right striatum (Sigurdsson, et al. (1997) supra). Sham procedures involved all the surgical steps without injections of Aβ(25-35) or endothelin. After wound suture, all rats received […] of buprenorphine intramuscularly and were allowed to recover from surgery for 7 days.
For training (n=10 for each group), rats were placed into the Montoya staircase apparatus (Montoya, et al. (1991) supra) at the same time every day for 8 days (days −8 through −1) and were allowed to perform the test for 20 minutes. Rats were food-deprived for 1 day (day −9) before testing, as well as on day −8. On days −7 though −1, rats were fed 10 grams of their normal chow so that they maintained their body weight at ˜85%. Three NOYES LAB ANIMAL PRECISION FOOD PELLETS™ (Research Diets, Inc., New Brunswick, N.J.) were placed in each of the 14 wells (7 on each side). Pellets eaten were recorded from each well. Re-testing trials, which were performed 7 days after the surgical procedures (day 0), were performed for 8 days in the same way as the training trials (days 8 through 15).
Digital photographs were taken using a light microscope (Leitz Diaplan). An investigator was blinded to the identification of the rat sections while analysis was being performed. […] Also, relative optical density measurements and numbers of stained cells or accumulations were measured in entire brain areas for quantitative analysis and statistically analyzed with ANOVA and Tukey post hoc test with a significance level of P<0.05. […] The staircase data are expressed as the mean±SEM. […] Data are expressed as mean±SEM. […]

rats = experiment: Barnes circular platform test; assay type: in vivo, rat; details: 50 nmol intracerebroventricular; memory test trial (day 8) vs last trial of training (day −1); P<0.01
Method: All rats were anesthetized using 40 mg/kg of pentobarbital (Somnotol; MTC Pharmaceuticals, Cambridge, Ontario) intraperitoneally. Body temperature was maintained at 37° C. Aβ(25-35) (50 nmol in 10 μL of saline) was injected bilaterally into the lateral ventricles. Aβ(25-35) was prepared according to established methods (Sigurdsson, et al. (1997) supra). […] (1997) supra). […] After wound suture, all rats received […] of buprenorphine intramuscularly and were allowed to recover from surgery for 7 days. Learning and memory deficits were assessed using the Barnes circular platform. There are twenty holes evenly located along the border of circular platform with a hidden escape box beneath one of the holes. The circular platform is equipped with colored cues on the surrounding wall. A bright light combined with wind from a fan hung on the ceiling above the platform provides the incentive for the rats to find the hidden box and enter the escape hole. During each trial, the rats were initially placed in the center of the platform under an inverted box, then the box was lifted up and the rat is allowed to find the hole for up to 4 minutes. The latency (time to enter the escape hole) was recorded during the trial. There was a training period (trials 1-14) performed at day −7 to day −1 before surgery (day 0). PDTC or vehicle treatment was given 30 minutes before Aβ(25-35) injections and from days 1 to 7 post-surgery. Spatial memory was then tested on day 8 (trial 15) with the escape hole placed in the same location. Spatial learning was examined by re-testing (re-acquisition) from days 9 to 15 (trials 16-29) with the escape box relocated at […] from the original location. Digital photographs were taken using a light microscope (Leitz Diaplan). […] Also, relative optical density measurements and numbers of stained cells or accumulations were measured in entire brain areas for quantitative analysis and statistically analyzed with ANOVA and Tukey post hoc test with a significance level of P<0.05. […] The staircase data are expressed as the mean±SEM. […] Data are expressed as mean±SEM. […]

Male Wistar rats [3] = experiment: Congo Red histochemistry of rat brain sections; assay type: in vivo; details: Aβ: lesions in fornix, anterior hippocampus, CA1 hippocampus; endothelin: infarct
Method: as §1
as §2, with “days. […]” for “days.”

Staircase test performance, ipsilateral paw (Male Wistar rats [2]; day 8 (first day of re-testing), mean±SEM): 73±8 % of pretreatment
total number of pellets eaten (Male Wistar rats [2]; day 8 compared with the last day of training, disappeared by day 9): significant deficit
Sequence: GSNKGAIIGLM [Aβ, β-amyloid fragment (25-35), 50 nmol injected bilaterally into the lateral ventricles of rats]
average numbers of OX-6-stained microglia (Male Wistar rats [1]; CA1 of the hippocampus): 13.4±5.1
Average intensity measurements for GFAP (Male Wistar rats [1]; Hippocampus): 162.9±8.7
APP Accumulation (Male Wistar rats [1]; Left Cortex): 36.8 ± 7.8^y
GFAP Intensity (Male Wistar rats [1]; Left Hippocampus): 167.5 ± 5.2
OX6 Intensity (Male Wistar rats [1]; Left Hippocampus): 116.2 ± 6.7
APP Accumulation (Male Wistar rats [1]; Right Cortex): 37.8 ± 5.4^y
GFAP Intensity (Male Wistar rats [1]; Right Hippocampus): 166.5 ± 4.2
OX6 Intensity (Male Wistar rats [1]; Right Hippocampus): 119.3 ± 9.1
latency (time to enter the escape hole) (rats): increased latency
Congo Red staining (Male Wistar rats [3]): stained amyloid positive with Congo Red
